Assays:
Assay type in all cases: biochemical
[1] = molecular target: T1, Bacillus circulans cyclodextrin glycosyltransferase (CGTase) variant M234I, Met234Ile of parent SEQ ID NO.2 [来源于环状芽孢杆菌(B.circulans)的环糊精葡萄糖基转移酶, M234I] (Niallia circulans, UniProt P43379, M261I); experiment: Acceptor affinity for maltose (Km) in the disproportionation reaction, M234I; conditions: M234I vs wild type, EPS as donor, pH 5.5, 50℃, affinity expressed by Km
T1 construct: made in house; host or cells: E. coli BL21(DE3), pET-20b(+), fermentation supernatant (crude enzyme)
T1 sequence (P43379 28-713 M261I): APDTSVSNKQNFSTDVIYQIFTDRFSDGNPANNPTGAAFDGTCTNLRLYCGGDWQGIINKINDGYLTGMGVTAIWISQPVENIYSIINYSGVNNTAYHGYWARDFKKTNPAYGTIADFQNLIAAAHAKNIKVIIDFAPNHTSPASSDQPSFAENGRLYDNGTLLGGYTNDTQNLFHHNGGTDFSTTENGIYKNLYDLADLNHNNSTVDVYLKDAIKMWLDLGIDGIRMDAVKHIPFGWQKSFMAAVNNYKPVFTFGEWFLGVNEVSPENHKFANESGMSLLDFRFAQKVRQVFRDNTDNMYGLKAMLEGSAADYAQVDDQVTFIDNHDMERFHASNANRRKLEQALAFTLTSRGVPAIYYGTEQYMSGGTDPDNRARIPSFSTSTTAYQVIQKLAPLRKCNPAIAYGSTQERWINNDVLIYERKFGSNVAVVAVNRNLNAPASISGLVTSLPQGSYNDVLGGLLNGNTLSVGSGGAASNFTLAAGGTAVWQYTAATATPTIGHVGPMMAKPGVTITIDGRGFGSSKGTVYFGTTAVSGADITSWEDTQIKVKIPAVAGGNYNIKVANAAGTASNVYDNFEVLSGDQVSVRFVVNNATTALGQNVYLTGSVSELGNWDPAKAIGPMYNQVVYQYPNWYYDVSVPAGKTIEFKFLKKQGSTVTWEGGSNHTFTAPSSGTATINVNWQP

[2] = molecular target: Bacillus circulans cyclodextrin glycosyltransferase (CGTase) variant M234A, Met234Ala of parent SEQ ID NO.2 [来源于环状芽孢杆菌(B.circulans)的环糊精葡萄糖基转移酶, M234A] (Niallia circulans, UniProt P43379, M261A); experiment: Acceptor affinity for maltose (Km) in the disproportionation reaction, M234A; conditions: M234A vs wild type, EPS as donor, pH 5.5, 50℃, affinity expressed by Km
Sequence of Bacillus circulans cyclodextrin glycosyltransferase (CGTase) variant M234A, Met234Ala of parent SEQ ID NO.2 [来源于环状芽孢杆菌(B.circulans)的环糊精葡萄糖基转移酶, M234A] (P43379 whole entry M261A): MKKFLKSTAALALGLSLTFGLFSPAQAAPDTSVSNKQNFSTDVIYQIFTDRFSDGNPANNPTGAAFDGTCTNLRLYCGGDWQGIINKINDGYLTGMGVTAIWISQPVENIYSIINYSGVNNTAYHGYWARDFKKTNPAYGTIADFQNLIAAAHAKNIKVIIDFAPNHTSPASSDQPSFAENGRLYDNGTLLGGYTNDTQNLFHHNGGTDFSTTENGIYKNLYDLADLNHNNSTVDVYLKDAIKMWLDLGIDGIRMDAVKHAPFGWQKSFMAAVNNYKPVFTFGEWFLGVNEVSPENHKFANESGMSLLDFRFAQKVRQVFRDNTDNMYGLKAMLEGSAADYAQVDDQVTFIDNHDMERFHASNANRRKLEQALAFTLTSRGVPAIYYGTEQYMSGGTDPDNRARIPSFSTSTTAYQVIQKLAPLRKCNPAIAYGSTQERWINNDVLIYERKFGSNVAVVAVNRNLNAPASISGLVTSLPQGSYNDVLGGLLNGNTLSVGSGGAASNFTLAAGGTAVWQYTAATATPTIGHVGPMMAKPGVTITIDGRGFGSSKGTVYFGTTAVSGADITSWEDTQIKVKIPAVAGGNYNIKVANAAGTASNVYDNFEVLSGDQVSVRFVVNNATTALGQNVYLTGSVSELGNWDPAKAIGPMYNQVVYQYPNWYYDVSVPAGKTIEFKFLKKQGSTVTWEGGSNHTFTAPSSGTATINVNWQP

[3] = molecular target: Bacillus circulans cyclodextrin glycosyltransferase (CGTase) variant M234L, Met234Leu of parent SEQ ID NO.2 [来源于环状芽孢杆菌(B.circulans)的环糊精葡萄糖基转移酶, M234L] (Niallia circulans, UniProt P43379, M261L); experiment: Acceptor affinity for maltose (Km) in the disproportionation reaction, M234L; conditions: M234L vs wild type, EPS as donor, pH 5.5, 50℃, affinity expressed by Km
Sequence of Bacillus circulans cyclodextrin glycosyltransferase (CGTase) variant M234L, Met234Leu of parent SEQ ID NO.2 [来源于环状芽孢杆菌(B.circulans)的环糊精葡萄糖基转移酶, M234L] (P43379 whole entry M261L): as the sequence (P43379 whole entry M261A) above, with A261L counted along it

[4] = molecular target: T2, Bacillus circulans cyclodextrin glycosyltransferase (CGTase) variant M234V, Met234Val of parent SEQ ID NO.2 [来源于环状芽孢杆菌(B.circulans)的环糊精葡萄糖基转移酶, M234V] (Niallia circulans, UniProt P43379, M261V); experiment: Acceptor affinity for maltose (Km) in the disproportionation reaction, M234V; conditions: M234V vs wild type, EPS as donor, pH 5.5, 50℃, affinity expressed by Km
T2 construct: made in house; host or cells: E. coli BL21(DE3), pET-20b(+), fermentation supernatant (crude enzyme)
T2 sequence (P43379 28-713 M261V): as the sequence (P43379 28-713 M261I) above, with I234V counted along it

Structure (SMILES): OCC1OC(OC2C(CO)OC(O)C(O)C2O)C(O)C(O)C1O (stereo not shown) [麦芽糖]
- increase in acceptor affinity for maltose compared with wild type [1]: 45.6%
- increase in acceptor affinity for maltose compared with wild type [2]: 34.7%
- increase in acceptor affinity for maltose compared with wild type [3]: 30.3%
- increase in acceptor affinity for maltose compared with wild type [4]: 36.9%

— patent publication CN109456950A, “一种环糊精葡萄糖基转移酶的突变体及其应用” (priority 2018, dated 2019)
